Measurements published in article PMC10718076, “1,2-Disubstituted bicyclo[2.1.1]hexanes as saturated bioisosteres of ortho-substituted benzene” (Chemical Science, 2023).
Values after ≈ are worked out from the molar mass of the structure shown. Where two headings read alike, the source gives them in different places.

What was measured:
[1] = Kinetic solubility in phosphate-buffered saline, pH 7.4; assay type: physicochemical; settings: 25 °C, kinetic from dmso stock, phosphate-buffered saline; for solubility kinetic at 2 h: aqueous buffer, pH 7.4, read-out: Sol.: experimental kinetic solubility; for solubility at 2 h: pH 7.4, aqueous buffer
Protocol: Analysis of Aqueous Solubility […]
compound (Ondansetron) were assessed for kinetic solubility in phosphate -buffered saline, pH 7.4.
Phosphate buffered saline, pH 7.4 (Sigma -Aldrich, USA; Cat #P3813) […]
MultiScreen HTS 96 Well Filter Plates (Millipore, Ireland; Cat # MSSLBPC10) […]
Matrix Multichannel Electronic Pipette 2-125 μL, 5-250 μL, 15-1250 μL (Thermo Scientific, USA; […]
Vacuum pump (Millipore, USA; Model # XX5500000)
The measurements were performed using SpectraMax Plus reader in UV -Vis mode. Acquisition and […]
The measurements were performed using SpectraMax Paradigm reader in UV-Vis mode.
Acquisition and analysis of the data were performed using SoftMax Pro v.5.4 (Molecular Devices) […]
Kinetic solubility assay was performed according to the Enamine’s aqueous solubility SOP. Briefly, using a 20 mM stock solution of the compound in 100% DMSO dilutions were prepared to a theoretical concentration of 400 μM in duplicates in phosphate-buffered saline pH 7.4 […]
compound dilutions in PBS were further allowed to equilibrate at 25 °C on a thermostatic shaker for two hours and then filtered through HTS filter plates using a vacuum manifold. The filtrates of test compounds were diluted 2-fold with acetonitrile with 2% DMSO before measuring.
In parallel, compound dilutions in 50% acetonitrile/PBS were prepared to theoretical concentrations […]
calibration curves. Ondansetron was used as reference compound to control proper assay performance. 200 μl of each sample was transferred to 96-well plate and measured in 230-550 nm range with 5 nm step. The effective range of this assay is approximately 2-400 μM and the […]
The concentrations of compounds in PBS filtrate are calculated using a dedicated Microsoft Excel calculation script. Proper absorbance wavelengths for calculations are selected for each compound manually based on absorbance maximums (absolute absorbance unit values for the minimum and maximum concentration points within the 0 – 3 OD range). Each final dataset is visually evaluated by the operator, and goodness of fit (R2) is calculated for each calibration curve. […]
samples were diluted 2-fold with acetonitrile containing internal standard and were analyzed using the HPLC system coupled with a tandem mass spectrometer. The effective range of this assay is […]

[2] = system: Aspergillus niger (strain VURV-F 822); assay: Antifungal disk diffusion method; assay type: cell-based; settings: for zone of inhibition at 4 µg/mL: Concentration 0.004 mg/mL, Boscalid, Bixafen marked st; for zone of inhibition at 4 µg/mL / zone of inhibition at 8 µg/mL / zone of inhibition at 16 µg/mL / zone of inhibition at 30 µg/mL / zone of inhibition at 60 µg/mL: 0 = absence of antifungal activity; for zone of inhibition at 4 µg/mL / zone of inhibition at 60 µg/mL: Fluxapyroxad; for zone of inhibition at 4 µg/mL / zone of inhibition at 8 µg/mL / zone of inhibition at 16 µg/mL / zone of inhibition at 30 µg/mL / zone of inhibition at 60 µg/mL / zone of inhibition at 120 µg/mL / zone of inhibition at 250 µg/mL / zone of inhibition at 500 µg/mL / zone of inhibition at 1000 µg/mL / zone of inhibition at 2000 µg/mL: read-out: Diameter of inhibition zone; for zone of inhibition at 8 µg/mL: Concentration 0.008 mg/mL; for zone of inhibition at 16 µg/mL: Concentration 0.016 mg/mL; for zone of inhibition at 30 µg/mL: Concentration 0.03 mg/mL; for zone of inhibition at 30 µg/mL / zone of inhibition at 60 µg/mL: (±)-29 marked st; for zone of inhibition at 60 µg/mL: Concentration 0.06 mg/mL, Bixafen; for zone of inhibition at 120 µg/mL: Concentration 0.12 mg/mL, (±)-28 marked st (static growth); for zone of inhibition at 250 µg/mL: Concentration 0.25 mg/mL, (±)-28 marked st (static growth, secondary growth of mycelium); for zone of inhibition at 500 µg/mL: Concentration 0.5 mg/mL; for zone of inhibition at 500 µg/mL / zone of inhibition at 1000 µg/mL / zone of inhibition at 2000 µg/mL: 10 μl per disk; for zone of inhibition at 1000 µg/mL: Concentration 1 mg/mL; for zone of inhibition at 2000 µg/mL: Concentration 2 mg/mL
Protocol: Antifungal activity of the synthetic compounds using disk diffusion methods The compounds were tested for plant pathogens Aspergillus niger (strain VURV-F 822), which was received from Culture collection of microorganisms of Crop Research Institute (Prague, Czech […]
The synthetic compounds' antifungal activity was evaluated using a disk diffusion assay for testing filamentous fungi (CLSI M51-A) and broth microdilution antifungal susceptibility testing (EUCAST E.DEF 7.3.1; CLSI M38-A2)
[CLSI M51-A. Method for Antifungal Disk Diffusion Susceptibility Testing of Nondermatophyte Filamentous Fungi; Approved Guideline.CLSI document M51-A. Wayne, PA:
Clinical and Laboratory Standards Institute; 2010. This method is standardized for Altenaria, Aspergillus, Bipolaris, Fusarium, order Mucorales, etc.]
[CLSI M38-A2. 2008. Reference method for broth dilution antifungal susceptibility testing of filamentous fungi, 2nd ed Approved standard M38 -A2 Clinical and Laboratory Standards Institute, […]
Antifungal disk diffusion method
The solutions of fungicides and their analogues were diluted in dimethyl sulfoxide (DMSO) to […]
mg/mL for each test component. Sterile paper disks (ASPECT, Ukraine) were soaked with 10 μl of a solution of the appropriate fungicide from the highest concentration to the lowest.
The fungal strains were cultured on Petri dishes with Saburo dextrose agar (Condalab, Spain) and incubated at 25 °C for 5 days. Sterile Dulbecco's phosphate -buffered saline (DPBS) with 0,1 % Tween 20 was used to cover colonies of fungus for obtained conidia l suspension. Suspension of conidia was adjusted to inoculums 2×10^5 conidia/mL by sterile DPBS.
For antifungal disk diffusion test we used square Petri dishes (FALCON A Corning Brand, USA). The conidial suspension (0.5 mL) was added to Petri dishes with Saburo dextrose agar. The suspension was evenly distributed over the surface of the nutrient medium with a glass spatula.
After the surface of the inoculated medium was dry, the disks with different concentrations of testing compounds were added to the Petri dishes. Each compound was tested in triplicate at different concentrations. Growth control was a disk with 10 μl of DMSO, which was used for test […]
Petri dishes incubated at 25 °C for 72 h. The test compounds at known concentrati on into contact with an inoculated medium then exert a growth-inhibiting effect then a clear zone (the zone of […]
inhibition) appears around the test product. The diameter of a clear zone around the well is […]
If the fungal strain is susceptible to the antifungal agent, then a zone of inhibition appears on the agar plate. If it is resistant to the test compound, then no zone is evident. The size of the zone of inhibition is usually related to the level of antifungal activity present in the compound – a larger […]
The growth rate of all strains for each concentration of test compounds was determined visually and compared with the growth of control.
Broth microdilution antifungal susceptibility testing
A 96-well CELLSTAR plate (sterile, flat-bottomed, polystyrene, transparent) was used to determine MIC by broth microdilution method. Also, dabble straight RPMI-1640 medium with 2% glucose (2x RPMI 2%G) was used for this method. Spore suspension for plate inoculation was prepared according to the method described above for the disc diffusion method.
The each well in the plate contained 49 μl of medium (2x RPMI 2%G), 50 μl of inoculum (prepared in DPBS) and 1 μl of the stock solution of the test substance. Positive control wells contained 50 μl medium and 50 μl inoculum, and sterile control wells contained 50 μl medium and […]
To determine the MIC by the microdilution method, a series of stock solutions of fungicides and their analogues in DMSO with the following concentrations were prepared: 3.2 mg/mL, 1.6 mg/mL, […]
1 μl of the stock solutions of the test substances were added to each well to obtain the following […]
Immediately after adding all the components to the plates, the optical density was measured at […]

[3] = Metabolic stability in human liver microsomes; settings: both; for remaining at 40 min, 2 µM: Mean of 2, 40 min; for remaining at 25 min, 2 µM: Mean of 2, 25 min
[4] = Table S2, 2st batch, read-out: PBS solubility, pH 7.4, Incubation 1
[5] = Table S2, 2st batch, read-out: PBS solubility, pH 7.4, Incubation 2
[6] = Table S2, 2st batch, read-out: PBS solubility, pH 7.4, Mean
[7] = Table S5, injection 1, octanol/PBS pH 7.4
[8] = Table S5, injection 2, octanol/PBS pH 7.4
[9] = Table S5, injection 3, octanol/PBS pH 7.4
[10] = liver microsomes (pooled), pH 7.4, % Remaining without cofactor, no NADPH cofactor, Table S6, 1st batch
[11] = liver microsomes (pooled), pH 7.4, % Remaining, Mean of 2, 7 min, Table S6, 1st batch
[12] = liver microsomes (pooled), pH 7.4, % Remaining, Mean of 2, 15 min, Table S6, 1st batch
[13] = liver microsomes (pooled), pH 7.4, % Remaining, Table S6, 1st batch
[14] = liver microsomes (pooled), pH 7.4, kel, Table S6, 1st batch
[15] = liver microsomes (pooled), pH 7.4, t1/2, Table S6, 1st batch
[16] = human liver microsomes (pooled), pH 7.4
[17] = human liver microsomes (pooled), pH 7.4, % Remaining, Table S9, 4st batch

Structure (SMILES) | solubility kinetic at 2 h [1] [µM] | solubility at 2 h [1, 4] [µM] | solubility at 2 h [1, 5] [µM] | solubility at 2 h [1, 6] [µM] | zone of inhibition at 4 µg/mL [2] [mm] | zone of inhibition at 8 µg/mL [2] [mm] | zone of inhibition at 16 µg/mL [2] [mm] | zone of inhibition at 30 µg/mL [2] [mm] | zone of inhibition at 60 µg/mL [2] [mm] | zone of inhibition at 120 µg/mL [2] [mm] | zone of inhibition at 250 µg/mL [2] [mm] | zone of inhibition at 500 µg/mL [2] [mm] | zone of inhibition at 1000 µg/mL [2] [mm] | zone of inhibition at 2000 µg/mL [2] [mm] | D [7] | D [8] | D [9] | remaining at 40 min, 2 µM [3, 10] [%] | remaining at […], 2 µM [3, 11] [%] | remaining at […], 2 µM [3, 12] [%] | also measured
Cn1cc(C(=O)NC2CC3CC2(c2cc(F)c(F)c(F)c2)C3)c(C(F)F)n1 (stereo not shown) [Compound 30] | 27 (≈ 10.4 µg/mL) | 25 (≈ 9.63 µg/mL) | 28 (≈ 10.8 µg/mL) | 27 (≈ 10.4 µg/mL) | 0 | 0 | 0 | 0 | 0 | 10 ± 0.5 | 8.5 ± 1 | 13.8 ± 0.75 | 20.5 ± 1 | 24.2 ± 0.75 | 4.08E+03 | 4.11E+03 | 4.44E+03 | 109 | 70 | 53 | microsomal CLint at 2 µM ([3]; liver microsomes (pooled), pH 7.4): 61 µL/min/mg; remaining at 25 min, 2 µM [3, 13]: 43%; remaining at 40 min, 2 µM [3, 13]: 35%; k el at 2 µM [3, 14]: 0.000417 s⁻¹; half-life at 2 µM [3, 15]: 27.3 min
Cn1cc(C(=O)Nc2ccc(F)cc2-c2ccc(Cl)c(Cl)c2)c(C(F)F)n1 [Bixafen, bixafen] | 30 (≈ 12.4 µg/mL) |  |  |  | 9 ± 2 | 15.8 ± 1.25 | 14.5 ± 1 | 20.2 ± 2.25 | 20.5 ± 1.75 | 27 ± 1 | 32 ± 2.5 | 32.8 ± 1.75 | 35.2 ± 1.4 | 38 ± 1 | 1.23E+04 | 1.53E+04 | 2.30E+04 |  |  |  | solubility at 2 h ([1]; Table S4, 4nd batch, read-out: PBS solubility, pH 7.4, Incubation 1): 29 µM (≈ 12 µg/mL); solubility at 2 h ([1]; Table S4, 4nd batch, read-out: PBS solubility, pH 7.4, Incubation 2): 31 µM (≈ 12.8 µg/mL); solubility at 2 h ([1]; Table S4, 4nd batch, read-out: PBS solubility, pH 7.4, Mean): 30 µM (≈ 12.4 µg/mL); MIC ([2]; disk diffusion, small zones of inhibition with secondary mycelial growth, read-out: minimum inhibitory concentration): 4 µg/mL (≈ 9.66 µM); microsomal CLint at 2 μM [3, 16]: ~10 µL/min/mg; remaining at 40 min, 2 µM ([3]; human liver microsomes (pooled), pH 7.4, % Remaining without cofactor, no NADPH cofactor, Table S9, 4st batch): 101%; remaining at […], 2 µM ([3]; human liver microsomes (pooled), pH 7.4, % Remaining, Mean of 2, 7 min, Table S9, 4st batch): 105%; remaining at […], 2 µM ([3]; human liver microsomes (pooled), pH 7.4, % Remaining, Mean of 2, 15 min, Table S9, 4st batch): 97%; remaining at 25 min, 2 µM [3, 17]: 93%; remaining at 40 min, 2 µM [3, 17]: 87%; k el at 2 μM ([3]; human liver microsomes (pooled), pH 7.4, kel, Table S9, 4st batch, * approximate due to high stability): ~6.67e-05 s⁻¹; half-life at 2 µM ([3]; human liver microsomes (pooled), pH 7.4, t1/2, Table S9, 4st batch, * approximate due to high stability): ~161 min
O=C(NC1CC2CC1(c1ccc(Cl)cc1)C2)c1cccnc1Cl (stereo not shown) [Compound 28] | 35 (≈ 12.2 µg/mL) | 35 (≈ 12.2 µg/mL) | 34 (≈ 11.8 µg/mL) | 35 (≈ 12.2 µg/mL) | 0 | 0 | 0 | 0 | 0 | 9 ± 0.5 | 7.5 ± 0.5 | 10.5 ± 1.5 | 13.8 ± 0.88 | 15.5 ± 0.5 | 3.84E+03 | 3.81E+03 | 3.49E+03 | 116 | 88 | 82 | microsomal CLint at 2 μM [3, 16]: 29 µL/min/mg; remaining at 25 min, 2 µM [3, 13]: 72%; remaining at 40 min, 2 µM [3, 13]: 61%; k el at 2 µM [3, 14]: 0.0002 s⁻¹; half-life at 2 µM [3, 15]: 57.6 min
